Source: article PMC6858373 (Scientific Reports, 2019)
Read-outs that look alike come from different tables or passages of the source. *1 amine or outer side, *2 acyl side, *3 side chain or, on linkers, in order; H or OH if unused. Where a SMILES comes first, the peptide text is derived from it. Bridges are numbered along the chain shown (N, C = ends). Roman numbers before positions name the chains, in order. [ ]: non-standard residue; d: D form. Actinocin(9to1) = Cc1c2oc3c(C)ccc(C(=O)[*:1])c3nc-2c(C(=O)[*:2])c(N)c1=O; NMeV = CN[C@H](C(=O)O)C(C)C; Sar = CNCC(=O)O

Key:
[1] = molecular target: T1, FGF14:Nav1.6 C-tail complex (Homo sapiens, UniProt Q92915+Q9UQD0); assay: Split-luciferase complementation assay (LCA) in Clone V double stable HEK293 cells; format: cell-based; details: for Split Luciferase Assay % Lum Set 1 / Split Luciferase Assay Z-score Set 1: biological replicate Set 1; for Split Luciferase Assay % Lum Set 1 / Split Luciferase Assay %Lum Set 2: normalized to on-plate 0.3% DMSO controls (n=16 per plate); for Split Luciferase Assay %Lum Set 2 / Split Luciferase Assay Z-score Set 2: biological replicate Set 2; for Split Luciferase Assay Z-score Set 1 / Split Luciferase Assay Z-score Set 2: normalized to on-plate 0.3% DMSO controls; for Split Luciferase Assay %Lum Avg: average of Set 1 and Set 2, normalized to 0.3% DMSO controls; for Z-score (LCA primary screening): 30 µM, average of primary screening (n = 2), vs on-plate 0.3% DMSO
T1 construct: polymerase chain reaction (PCR) amplification of the FGF14 open reading frame (nt 1–855); C-terminal fragment of Nav1.6 (amino acids 1763–1976) fused with CD4ΔC-tail (amino acids 1–395); expressed in transfected cells

[2] = molecular target: full-length P. pyralis luciferase (Photinus pyralis, UniProt P08659, K549A/L550V/N119G/N50D/S548I); format: cell-based
[3] = CC_NCI screening, LCA luminescence
[4] = CC_NCI screening, full-length luciferase counter-screen luminescence, normalized to on-plate 0.3% DMSO controls
[5] = CC_NCI screening, full-length luciferase counter-screen, normalized to on-plate 0.3% DMSO controls
[6] = CC_NCI screening, normalized to on-plate 0.3% DMSO controls

full-length P. pyralis luciferase, sequence (P08659 whole entry N50D/N119G/S548I/K549A/L550V, looked up): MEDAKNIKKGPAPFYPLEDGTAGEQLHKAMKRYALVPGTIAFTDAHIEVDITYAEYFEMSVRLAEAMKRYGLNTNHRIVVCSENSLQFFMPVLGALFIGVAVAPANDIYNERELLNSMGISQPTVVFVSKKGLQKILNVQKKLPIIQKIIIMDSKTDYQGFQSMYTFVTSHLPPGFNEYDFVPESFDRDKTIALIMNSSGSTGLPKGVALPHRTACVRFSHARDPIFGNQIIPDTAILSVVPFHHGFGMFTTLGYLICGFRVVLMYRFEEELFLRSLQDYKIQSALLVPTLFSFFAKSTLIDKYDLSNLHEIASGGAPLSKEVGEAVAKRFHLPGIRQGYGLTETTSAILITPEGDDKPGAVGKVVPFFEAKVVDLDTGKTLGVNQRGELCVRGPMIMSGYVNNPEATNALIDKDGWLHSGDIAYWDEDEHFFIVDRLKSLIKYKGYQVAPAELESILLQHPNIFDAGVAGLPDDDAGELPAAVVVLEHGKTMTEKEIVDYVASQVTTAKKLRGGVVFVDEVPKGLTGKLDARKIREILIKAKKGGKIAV
T1 sequence (Q92915 1-252 isoform Q92915-2): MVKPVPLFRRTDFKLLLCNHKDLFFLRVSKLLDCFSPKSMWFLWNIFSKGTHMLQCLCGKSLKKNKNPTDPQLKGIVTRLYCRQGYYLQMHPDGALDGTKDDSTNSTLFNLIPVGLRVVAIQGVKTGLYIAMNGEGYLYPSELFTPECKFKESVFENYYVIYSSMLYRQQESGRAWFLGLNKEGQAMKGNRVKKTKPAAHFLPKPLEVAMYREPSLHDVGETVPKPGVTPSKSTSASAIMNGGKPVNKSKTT
T1 sequence (Q9UQD0 1763-1976 limits assumed): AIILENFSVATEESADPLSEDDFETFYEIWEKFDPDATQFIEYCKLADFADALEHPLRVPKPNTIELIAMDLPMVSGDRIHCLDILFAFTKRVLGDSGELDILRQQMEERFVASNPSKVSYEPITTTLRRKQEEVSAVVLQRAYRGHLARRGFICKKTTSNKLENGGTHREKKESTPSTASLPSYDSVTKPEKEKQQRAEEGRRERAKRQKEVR

| SMILES | Split Luciferase Assay % Lum Set 1 [1, 3] [%] | Split Luciferase Assay %Lum Set 2 [1, 3] [%] | Split Luciferase Assay Z-score Set 1 ([1]; CC_NCI screening, LCA) | Split Luciferase Assay Z-score Set 2 ([1]; CC_NCI screening, LCA) | Split Luciferase Assay %Lum Avg ([1]; CC_NCI screening) [%] | Luciferase Assay % Lum [2, 4] [%] | Luciferase Assay Z-score [2, 5] | Toxicity Assay % Fluor (Clone V cells; human, 16 h, 30 µM) [%] | Toxicity Assay Z-score (Clone V cells; human, 16 h, 30 µM) | also measured |
| --- | --- | --- | --- | --- | --- | --- | --- | --- | --- | --- |
| Cc1cc2c(F)c(Oc3ncnn4cc(OC[C@@H](C)O)c(C)c34)ccc2[nH]1 [Brivanib] | 34.03 | 35.37 | -5.33 | -5.26 | 34.70 | 64.23 | -4.58 | 92.51 | -1.05 |  |
| CN(C)C(=N)N=C(N)N [METFORMIN] | 117.73 | 114.43 | 1.43 | 1.17 | 116.08 |  |  | 91.06 | -1.25 | Luciferase Assay % Lum [2]: 96.22%; Luciferase Assay Z-score [2]: -0.48 |
| COc1ccc(OC)c2c(=S)c3ccccc3[nH]c12 [NSC 625987] |  |  |  |  |  |  |  |  |  | Split Luciferase Assay Z-score Set 1 ([1]; CC_NCI screening): -1.20; Split Luciferase Assay % Lum Set 1 ([1]; CC_NCI screening): 85.12%; Split Luciferase Assay Z-score Set 2 ([1]; CC_NCI screening): -1.20; Split Luciferase Assay %Lum Set 2 ([1]; CC_NCI screening): 85.31%; Split Luciferase Assay %Lum Avg [1]: 85.21%; Luciferase Assay % Lum (full-length luciferase counter-screen) [2, 6]: 78.37%; Luciferase Assay Z-score (full-length luciferase counter-screen) [2, 6]: -2.77; Toxicity Assay % Fluor (CTB cell viability fluorescence) (Clone V cells): 109.17%; Toxicity Assay Z-score (CTB cell viability) (Clone V cells): 1.28 |
| O=S(=O)(NCCNC/C=C/c1ccc(Br)cc1)c1cccc2cnccc12 [H-89, reference compound] | 14.46 | 17.69 | -6.91 | -6.70 | 16.07 | 80.98 | -2.44 |  |  | Z-score (LCA primary screening) ([1]; 384-well): −6.81; dose-response behavior of repurchased compounds ([1]; 10-point dose response 0.25-50 µM, Clone V cells): purely inhibitory effects; IMin (% Luminescence) ([1]; antagonists, Clone V cells, 384-well, normalized to DMSO): 16.07 % Luminescence; action toward the FGF14:Nav1.6 C-tail interaction ([1]; dose-dependency validation using fresh compound samples): acted as antagonists; IC50 ([1]; estimated, 8-point dose response 0.25-30 µM, n = 4 per concentration, library compounds, read-out: IC50): 12.2 µM; IC50 ([1]; repurchased compounds, 10-point dose response 0.25-50 µM, n = 8 per concentration, Clone V cells, 384-well, read-out: in-cell IC50): 1.9 µM; Toxicity Assay % Fluor (Clone V cells): 91.80%; Toxicity Assay Z-score (Clone V cells): -1.15 |
| Cc1nc(Nc2ncc(C(=O)Nc3c(C)cccc3Cl)s2)cc(N2CCN(CCO)CC2)n1 [DASATINIB] | 38.37 | 65.54 | -4.98 | -2.80 | 51.96 | 82.88 | -2.19 | 83.83 | -2.26 |  |
| COc1cc([C@@H]2c3cc4c(cc3[C@@H](O[C@@H]3O[C@@H]5CO[C@@H](C)O[C@H]5[C@H](O)[C@H]3O)[C@H]3COC(=O)[C@H]23)OCO4)cc(OC)c1O [Etoposide] | 77.51 | 72.82 | -1.82 | -2.21 | 75.17 | 103.75 | 0.48 | 88.49 | -1.61 |  |
| Cc1c2oc3c(C)ccc(C(=O)N[C@@H]4C(=O)N[C@H](C(C)C)C(=O)N5CCC[C@H]5C(=O)N(C)CC(=O)N(C)[C@@H](C(C)C)C(=O)O[C@@H]4C)c3nc-2c(C(=O)N[C@@H]2C(=O)N[C@H](C(C)C)C(=O)N3CCC[C@H]3C(=O)N(C)CC(=O)N(C)[C@@H](C(C)C)C(=O)O[C@@H]2C)c(N)c1=O [Dactinomycin] (I: T[dV]P[Sar][NMeV] / II: T[dV]P[Sar][NMeV]; ester I:1-I:C, II:1-II:C; linker I:N-II:N via Actinocin(9to1)) |  | 65.54 |  | -2.80 | 62.83 | 95.88 | -0.53 |  |  | Toxicity Assay % Fluor (Clone V cells; human): 93.25%; Toxicity Assay Z-score (Clone V cells; human): -0.94 |
| Nc1ncnc2c1c(-c1cnc3[nH]ccc3c1)nn2C1CCCC1 [PP121, reference compound] |  |  |  |  |  |  |  |  |  | Z-score (LCA primary screening) ([1]; 384-well): −4.14; Split Luciferase Assay Z-score Set 1 ([1]; CC_NCI screening): -4.89; Split Luciferase Assay % Lum Set 1 ([1]; CC_NCI screening): 39.46%; Split Luciferase Assay Z-score Set 2 ([1]; CC_NCI screening): -3.40; Split Luciferase Assay %Lum Set 2 ([1]; CC_NCI screening): 58.26%; Split Luciferase Assay %Lum Avg [1]: 48.86%; Z-score, full-length luciferase assay ([2]; 30 µM, 384-well plates, vs on-plate 0.3% DMSO): 3.11; Luciferase Assay % Lum (full-length luciferase counter-screen) [2, 6]: 124.27%; Luciferase Assay Z-score (full-length luciferase counter-screen) [2, 6]: 3.11; Toxicity Assay % Fluor (CTB cell viability fluorescence) (Clone V cells): 111.23%; Toxicity Assay Z-score (CTB cell viability) (Clone V cells): 1.57 |
